Test results taken from patent US20190233836A1, “MEANS AND METHODS TO INCREASE COUMARIN PRODUCTION” (VIB VZW, priority 2016, published 2019).

System: COSY
Assay: Enzymatic activity of COSY: in vitro assay combined with tobacco 4CL and CoA
Assay type: biochemical, Arabidopsis thaliana
Conditions: 4CL and COSY added simultaneously, CoA present; purified COSY expressed in E. coli
Excerpt: FIG. 7: Enzymatic activity of COSY. COSY and 4CL were supplemented with either 2-hydroxy-p-coumaric acid (2OHpCA), 6-hydroxycaffeic acid (6OHCA) or 6-hydroxyferulic acid (6OHFA). Umbelliferone, esculetin and scopoletin were formed, respectively, only in the presence of CoA and the enzymes 4CL and COSY. The y-axis represents the normalized abundance, error bars show the standard deviation (n=4).
Although the idea of spontaneous isomerization and lactonisation in the biosynthesis of coumarins is now widely accepted in literature (Matsumoto S. et al., 2012; Yang et al., 2015) our cosy mutant data in Example 1 clearly contradict this. When we took a closer examination at the lactonisation reaction of the coumarin core structures we investigated the possible resemblance to an esterification-type reaction mediated by BAHD acyltransferases. BAHD family members utilize activated CoA-thioesters as acyl-donors and an alcohol or amine as the acyl acceptor to form an ester or amide, respectively. We therefore hypothesized that COUMARIN SYNTHASE (COSY) could be a BAHD acyltransferase responsible for the isomerization and lactonization of ortho-hydroxy-cinnamoyl CoA thioesters into coumarins. To verify the catalytic activity of COSY in vitro, COSY was expressed in Escherichia coli and the corresponding COSY protein purified. Potential substrates were chosen based on the phenolic profiling of the cosy mutants. […] Because neither 2′-hydroxy-p-coumaroyl-CoA, 6′-caffeoyl-CoA nor 6′-hydroxyferuloyl-CoA were commercially available, the corresponding acids were synthesized and the enzymatic assays were performed in combination with a tobacco 4-COUMARATE:CoA LIGASE (4CL) to catalyze the formation of the corresponding CoA thioesters in situ (Beuerle & Pichersky, 2002). In the samples where 4CL and COSY were added simultaneously, seemingly 100% 2-hydroxy-p-coumaric acid and 6-hydroxyferulic acid were converted into the corresponding coumarins, i.e., umbelliferone and scopoletin. […]

Compound | substrate converted into the corresponding coumarin (umbelliferone, scopoletin, esculetin)
O=C(O)/C=C/c1ccc(O)cc1O [2-hydroxy-p-coumaric acid] | ~100%
O=C(O)/C=C/c1cc(O)c(O)cc1O [6-hydroxycaffeic acid] | About 50%
COc1cc(/C=C/C(=O)O)c(O)cc1O [6-hydroxyferulic acid] | ~100%
